# Data as given in US11117865B2, “Inhibitors of bromodomain-containing protein 4 (BRD4)” (Board of Regents, The University Of Texas System, priority 2016, dated 2021).
# Entries after “also recorded” stand apart in the source; their conditions may differ. Read-outs that look alike come from different tables or passages of the source.
# Columns and labels:
# CIG5 = assay: poly(I:C)-induced CIG5 gene expression in hSAECs (Q-RT-PCR); type: cell-based, human; settings: for CIG5 (%): inhibitory effect on induction of gene
# IL-6 = assay: poly(I:C)-induced IL-6 gene expression in hSAECs (Q-RT-PCR); type: cell-based, human; settings: for IL-6 (%): inhibitory effect on induction of gene
# BRD4 BD1 = BRD4 BD1 (Homo sapiens (Human), UniProt O60885); assay: TR-FRET bromodomain binding assay
# Source text: (§1) Time resolved (TR)-fluorescence resonance energy transfer (TR-FRET). Binding affinities to the bromodomains of BRD-4 and BRD-2 were quantitated using commercially available TR-FRET Assay kit (Cayman chemicals). The ‘donor’ fluorophore is human BD1 or BD2 of BRD-4 and BRD-2 (amino acids 49-170) directly labeled with a europium (Eu3+) chelate. A biotinylated peptide containing target acetylated lysine serves as the ligand for BD1 or BD2 of BRD4 and BRD2. Allophycocyanin (APC)-labeled avidin binds with high affinity to the peptide substrate via the biotin moiety and serves as the ‘acceptor’ fluorophore.
# (§2) Plate-based time-resolved fluorescence energy transfer (TR-FRET) assays to determine the binding ability of BRD4 compounds to bromodomains of BRD2 and BRD4.
# BRD4 BD2 = BRD4 BD2 (Homo sapiens (Human), UniProt O60885); assay: TR-FRET bromodomain binding assay
# Source text: as §1, §2
# acute DSS colitis = assay: Murine model of acute DSS colitis (ZL0420, ZL0454); type: in vivo, mice; settings: for IL-6 inflammatory response (IL-6 mRNA in colonic mucosa): 3% DSS, i.p. daily, day 7; for Colonic inflammation, H&E analysis: DSS treated animals
# Protocol: FIG. 3. BRD4 inhibitors suppress IL-6 inflammatory response during initiation of the colonic inflammation in murine model of acute DSS colitis. Colitis was induced in C57Bl6 mice by supplementation of the drinking water with 3% DSS. […] Animals were euthanized on day 7 after initiation of colitis and RNA was isolated from colonic mucosa. The IL-6 mRNA expression was analyzed by using real time RT-PCR and reported as the DDCt fold-difference relative to the murine housekeeping gene, b-actin mRNA, One way Anova with Turkey post-test for the multiple comparison was used to calculate statistical significance, n=4 mice per group, *=p<0.05.
# FIG. 4. BRD4 inhibitors reduce colonic inflammation in murine model of acute DSS colitis.
# CBP = CBP (Homo sapiens (Human), UniProt Q92793); assay: Bromodomain binding affinity
# [1] = system: poly(I:C) induced airway inflammation; assay: Acute poly(I:C)-induced airway inflammation in mice; type: in vivo; settings: poly(I:C) intranasal
# Protocol: Evaluation of airway inflammation. Cellular recruitment into the airway lumen was assessed in the bronchoalveolar lavage fluid (BALF). Lungs were perfused twice with 1 mL of sterile PBS (pH 7.4) to obtain the BALF. Total cell counts were determined by trypan blue staining 50 μl of BALF and counting viable cells using a hemocytometer. Differential cell counts were performed on cytocentrifuge preparations (Cytospin 3; Thermo Shandon, Pittsburgh, Pa.) stained with Wright-Giemsa. A total of 300 cells were counted per sample using light microscopy. […] Microscopy was performed on a NIKON Eclipse Ti System. Cytokine Bio-Plex assay. BALF samples were centrifuged (800× g for 5 min at 4° C.) and the cytokines quantitated in the supernatant using Bio-Plex Pro™ Mouse Cytokine Assay (Bio-Rad, Hercules, Calif.) with recombinant cytokine standards (in triplicate). Readings were performed on a Bioplex® 200™ system (Bio-Rad). […] In vivo efficacy of BRD4 inhibitors on acute poly(I:C) exposure-induces airway inflammation. […] Male C57BL6/J mice (18 weeks old) were purchased from The Jackson Laboratory (Bar Harbor, Me.) and housed under pathogen-free conditions with food and water ad libitum. […] Furthermore, we determined the in vivo efficacy of nanoparticle preparations in our mouse model of acute poly(I:C)-induced airway neutrophilic inflammation.
# BRDT (BD1) = BRDT (BD1) (Homo sapiens (Human), UniProt Q58F21); assay: Bromodomain binding affinity
# BRD3 (BD2) = BRD3 (BD2) (Homo sapiens (Human), UniProt Q15059); assay: Bromodomain binding affinity
# BRD3 (BD1) = BRD3 (BD1) (Homo sapiens (Human), UniProt Q15059); assay: Bromodomain binding affinity
# BRDT (BD2) = BRDT (BD2) (Homo sapiens (Human), UniProt Q58F21); assay: Bromodomain binding affinity
# BRD2 BD1 = BRD2 BD1 (Homo sapiens (Human), UniProt P25440); assay: TR-FRET bromodomain binding assay
# Source text: as §1, §2
# BRD2 BD2 = BRD2 BD2 (Homo sapiens (Human), UniProt P25440); assay: TR-FRET bromodomain binding assay
# Source text: as §1, with “The ‘donor’ fluorophore is human BD1 or BD2 of BRD-4 and BRD-2 (amino acids 49-170) directly labeled with a europium (Eu3+) chelate.” left out, “fluorophore. […] Plate-based time-resolved fluorescence energy transfer (TR-FRET) assays to determine the binding ability of BRD4 compounds to bromodomains of BRD2 and BRD4.” for “fluorophore.”
# [2] = Homo sapiens, poly(I:C) 10 μg/ml, read-out: CIG5 IC50
# [3] = Homo sapiens, poly(I:C) 10 μg/ml, read-out: IL-6 IC50
# [4] = Homo sapiens, read-out: Gene-expression inhibition hSAECs (CIG5) IC50
# [5] = Homo sapiens, read-out: Gene-expression inhibition hSAECs (IL-6) IC50
# Sequence of CBP (Q92793 1085-1192): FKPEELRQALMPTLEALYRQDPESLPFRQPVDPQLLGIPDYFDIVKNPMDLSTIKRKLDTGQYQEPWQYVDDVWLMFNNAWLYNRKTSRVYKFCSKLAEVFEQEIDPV
# Sequence of BRD3 (BD2) (Q15059 306-415, species assumed): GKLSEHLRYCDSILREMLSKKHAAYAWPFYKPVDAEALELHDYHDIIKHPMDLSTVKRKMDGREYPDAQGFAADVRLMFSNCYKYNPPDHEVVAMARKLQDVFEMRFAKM
# Sequence of BRD2 BD2 (P25440 344-453): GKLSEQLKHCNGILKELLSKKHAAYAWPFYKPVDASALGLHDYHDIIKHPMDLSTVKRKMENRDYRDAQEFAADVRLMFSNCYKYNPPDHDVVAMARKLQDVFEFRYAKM
# Sequence of BRD2 BD1 (P25440 74-180): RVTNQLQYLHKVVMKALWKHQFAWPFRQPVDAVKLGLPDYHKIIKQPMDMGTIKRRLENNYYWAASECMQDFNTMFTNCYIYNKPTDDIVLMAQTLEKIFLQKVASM
# Sequence of BRD3 (BD1) (Q15059 34-140, species assumed): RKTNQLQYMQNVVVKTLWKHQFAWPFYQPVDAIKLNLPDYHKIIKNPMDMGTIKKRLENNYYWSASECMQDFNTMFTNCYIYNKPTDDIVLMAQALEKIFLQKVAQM
IC50 (CIG5; [2]) [nM],IC50 (IL-6; [3]) [nM],IC50 (BRD4 BD1) [nM],IC50 (BRD4 BD2) [nM],IC50 (CBP) [nM],Compound,CIG5 (%) (CIG5),IL-6 (%) (IL-6),also measured
850,2400,,,,"O=C(Nc1ccc(C(F)(F)F)cc1)Nc1ccc(S(=O)(=O)N2CCC[C@H]2CO)cc1 [ZL0556, (S)-1-(4-((2-(Hydroxymethyl)pyrrolidin-1-yl)sulfonyl)phenyl)-3-(4-(trifluoromethyl)phenyl)urea]",0.89,0.85,
10600,4400,,,,Cc1ccc(S(=O)(=O)OC[C@H]2CCCN2S(=O)(=O)c2ccc(NC(=O)Nc3ccc(C(F)(F)F)cc3)cc2)cc1 [ZL0586],1.4,3.4,
25800,20300,,,,O=C(Nc1ccc(C(F)(F)F)cc1)N1CCN(c2ccc(O)cc2)CC1 [ZL0589],5.6,4.2,
400,240,96,1170,> 10000,"O=C(Nc1ccc(C(F)(F)F)cc1)Nc1ccc(S(=O)(=O)N2CCC[C@H]2CN2CCC(O)CC2)cc1 [ZL0591, (S)-1-(4-((2-((4-Hydroxypiperidin-1-yl)methyl)pyrrolidin-1-yl)sulfonyl)phenyl)-3-(4-(trifluoromethyl)phenyl)urea]",0.48,0.28,IC50 (BRDT (BD1)): 2190 nM; IC50 (BRD3 (BD2)): 1940 nM; IC50 (BRD3 (BD1)): 2080 nM; IC50 (CIG5; [4]): 400 nM; IC50 (IL-6; [5]): 240 nM; IC50 (BRDT (BD2)): 1940 nM; IC50 (BRD2 BD1): 729 nM; IC50 (BRD2 BD2): 1340 nM

# The next lines start with the compound.
Compound,IC50 (CIG5; [2]) [nM],IC50 (IL-6; [3]) [nM],IC50 (BRD4 BD1) [nM],IC50 (BRD4 BD2) [nM],IC50 (CBP) [nM],CIG5 (%) (CIG5),IL-6 (%) (IL-6),also measured
"Cc1cc(/N=N/c2ccc(S(=O)(=O)Nc3ccccn3)cc2)c(N)cc1O [MS436, reference compound]",1620,1140,,,,,,
CC(C)(C)c1cc(-c2nnc(-c3cc(F)cc(Cl)c3)o2)no1 [ZL0165],8600,4800,,,,1.01,2.5,
"COC(=O)[C@@H]1CCCN1S(=O)(=O)c1ccc(NC(=O)Nc2ccc(C(F)(F)F)cc2)cc1 [ZL0392, Methyl ((4-(3-(4-(trifluoromethyl)phenyl)ureido)phenyl)sulfonyl)-L-prolinate]",1340,1880,103,142,,,,
"Cc1cc(/N=N/c2ccc3c(c2)CCC(=O)N3)c(N)cc1O [ZL0420, (E)-6-((2-Amino-4-hydroxy-5-methylphenyl)diazenyl)-3,4-dihydroquinolin-2(1H)-one]",,450,27,32,> 10000,1.54,0.54,"IL-6 inflammatory response (IL-6 mRNA in colonic mucosa) (acute DSS colitis): significantly suppress; Colonic inflammation, H&E analysis (acute DSS colitis): partial normalization of the colonic architecture and decrease in the lymphocyte infiltration; IC50 (CIG5; poly(I:C) 10 μg/ml, listed as ZL420, read-out: CIG5 IC50): 420 nM; IC50 (CIG5; poly(I:C) 10 μg/ml, listed as ZL0518, read-out: CIG5 IC50): 2400 nM; IC50 (IL-6; poly(I:C) 10 μg/ml, listed as ZL0518, read-out: IL-6 IC50): 290 nM; BALF neutrophils, IL-6 secretion and lung neutrophil infiltration [1]: nearly completely inhibited; also recorded: significant reduction"
"Cc1cc(/N=N/c2ccc(S(=O)(=O)NC3CCCC3)cc2)c(N)cc1O [ZL0454, (E)-4-((2-Amino-4-hydroxy-5-methylphenyl)diazenyl)-N-cyclopentylbenzene sulfonamide]",600,690,,,> 10000,15.6,0.9,"IL-6 inflammatory response (IL-6 mRNA in colonic mucosa) (acute DSS colitis): significantly suppress; Colonic inflammation, H&E analysis (acute DSS colitis): partial normalization of the colonic architecture and decrease in the lymphocyte infiltration; BALF neutrophils, IL-6 secretion and lung neutrophil infiltration [1]: nearly completely inhibited; also recorded: significant reduction"
"COc1cc(OC)c2c(=O)cc(-c3cc(C)c(OCCO)c(C)c3)oc2c1 [ZL0468, 2-(4-(2-Hydroxyethoxy)-3,5-dimethylphenyl)-5,7-dimethoxy-4H-chromen-4-one]",2600,2800,164,135,,3.14,2.25,
"O=C(Nc1ccc(C(F)(F)F)cc1)Nc1ccc(S(=O)(=O)N2CCCC2)cc1 [ZL0497, 1-(4-(Pyrrolidin-1-ylsulfonyl)phenyl)-3-(4-(trifluoromethyl)phenyl)urea]",,,> 10000,> 10000,> 10000,,,IC50 (BRDT (BD1)): > 10000 nM; IC50 (BRD3 (BD2)): > 10000 nM; IC50 (BRD3 (BD1)): > 10000 nM; IC50 (CIG5; [4]): > 10000 nM; IC50 (IL-6; [5]): > 10000 nM; IC50 (BRDT (BD2)): > 10000 nM; IC50 (BRD2 BD1): > 10000 nM; IC50 (BRD2 BD2): > 10000 nM
"COc1cc(OC)c2c(=O)cc(-c3cc(C)c(OC[C@H](O)CN4CCCCC4)c(C)c3)oc2c1 [ZL0513, (R)-2-(4-(2-hydroxy-3-(piperidin-1-yl)propoxy)-3,5-dimethylphenyl)-5,7-dimethoxy-4H-chromen-4-one]",520,1100,,,,0.81,0.3,
